Test results taken from patent US20240158446A1, “CYCLIC COMPOUND HAVING SELECTIVE INHIBITORY ACTION ON KRAS OVER HRAS AND NRAS” (CHUGAI SEIYAKU KABUSHIKI KAISHA, priority 2021, published 2024).
Where two headings read alike, the source gives them in different places.

Legend:
[1] = molecular target: GDP-bound NRAS wild-type protein (Homo sapiens, UniProt P01111); assay: Binding to NRAS by surface plasmon resonance (SPR), Single Cycle Kinetics; conditions: for NRAS/KRAS (ratio of KD value for NRAS to KD value for KRAS) / ratio of the KD value with respect to GDP-bound NRAS wild-type protein to the KD value with respect to KRAS: SPR; for NRAS/KRAS (ratio of KD value for NRAS to KD value for KRAS): GDP-bound NRAS wild-type protein vs GDP-bound KRAS wild-type protein
[2] = molecular target: GDP-bound HRAS wild-type protein (Homo sapiens, UniProt P01112); assay: Binding to HRAS by surface plasmon resonance (SPR), Single Cycle Kinetics; conditions: for HRAS/KRAS (ratio of KD value for HRAS to KD value for KRAS) / ratio of the KD value with respect to GDP-bound HRAS wild-type protein to the KD value with respect to KRAS: SPR; for HRAS/KRAS (ratio of KD value for HRAS to KD value for KRAS): GDP-bound HRAS wild-type protein vs GDP-bound KRAS wild-type protein
[3] = molecular target: GDP-bound KRAS wild-type protein (Homo sapiens, UniProt P01116); assay: Binding to KRAS by surface plasmon resonance (SPR), Single Cycle Kinetics; conditions: GDP-bound KRAS wild-type protein, read-out: KRAS KD
[4] = test system: human lung cancer strain NCI-H441;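 note: cell proliferation inhibition after four days measured by CellTiter-Glo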
[5] = read-out: NCI-H441 cell proliferation inhibitory activity, 50% proliferation inhibitory concentration (IC50 value), NCI-H441, four days, CellTiter-Glo

Sequence of GDP-bound HRAS wild-type protein (P01112 whole entry): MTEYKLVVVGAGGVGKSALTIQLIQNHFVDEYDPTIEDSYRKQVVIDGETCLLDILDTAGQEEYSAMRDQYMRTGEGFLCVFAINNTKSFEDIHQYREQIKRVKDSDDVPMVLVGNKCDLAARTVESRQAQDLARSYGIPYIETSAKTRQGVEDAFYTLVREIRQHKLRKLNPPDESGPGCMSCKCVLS
Sequence of GDP-bound NRAS wild-type protein (P01111 whole entry): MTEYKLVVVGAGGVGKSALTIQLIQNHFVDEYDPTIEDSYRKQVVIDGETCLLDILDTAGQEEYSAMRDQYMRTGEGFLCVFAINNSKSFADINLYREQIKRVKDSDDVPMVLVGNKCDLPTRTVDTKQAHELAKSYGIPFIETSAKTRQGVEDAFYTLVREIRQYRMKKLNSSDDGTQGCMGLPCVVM
Sequence of GDP-bound KRAS wild-type protein (P01116 whole entry): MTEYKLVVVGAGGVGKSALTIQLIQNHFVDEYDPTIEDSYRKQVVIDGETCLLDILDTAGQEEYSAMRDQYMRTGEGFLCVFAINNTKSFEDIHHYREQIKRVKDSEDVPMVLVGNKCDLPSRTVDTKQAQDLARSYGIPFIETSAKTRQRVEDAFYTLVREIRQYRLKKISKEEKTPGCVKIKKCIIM

| Kd ([3]; SPR Single Cycle Kinetics, 1:1 binding model) [nM] | IC50 [4] [nM] | Kd ([3]; SPR, Single Cycle Kinetics) [nM] | IC50 [4, 5] [nM] | Structure (SMILES) | NRAS/KRAS (ratio of KD value with respect to GDP-bound NRAS wild-type protein to KD value with respect to KRAS) ([1]; SPR KD ratio NRAS/KRAS, class symbols) | HRAS/KRAS (ratio of KD value with respect to GDP-bound HRAS wild-type protein to KD value with respect to KRAS) ([2]; SPR KD ratio HRAS/KRAS, class symbols) | NRAS/KRAS (ratio of KD value for NRAS to KD value for KRAS) [1] | HRAS/KRAS (ratio of KD value for HRAS to KD value for KRAS) [2] | ratio of the KD value with respect to GDP-bound NRAS wild-type protein to the KD value with respect to KRAS [1] | ratio of the KD value with respect to GDP-bound HRAS wild-type protein to the KD value with respect to KRAS [2] |
| --- | --- | --- | --- | --- | --- | --- | --- | --- | --- | --- |
|  |  | 0.048 | 2.6 | CC[C@H](C)[C@@H]1NC(=O)[C@@H]2CCCCCc3ccc(cc3)C[C@@H](C(=O)N(C)CC(=O)N[C@@H](CCc3ccc(C(F)(F)F)c(OC)c3)C(=O)N3C[C@H](OC(C)C)C[C@H]3C(=O)NC3(CC(C)(C)C3)C(=O)N(C)[C@@H](C3CCCC3)C(=O)N(C)[C@H](C(=O)N(C)C)CC(=O)N2C)N2CC/C=C\C[C@@H](C2=O)N(C)C(=O)CN(C)C1=O [PP3072] |  |  | A (a compound having 10 or more and less than 20 is denoted as A) | B (a compound having 3 or more and less than 10 is denoted as B) | A (a compound having 10 or more and less than 20 is denoted as A) | B (a compound having 3 or more and less than 10 is denoted as B) |
|  |  | 0.025 | 1.9 | CC[C@H](C)[C@@H]1NC(=O)[C@@H]2CCCCCc3ccc(cc3)C[C@@H](C(=O)N(C)CC(=O)N[C@@H](CCc3ccc(C(F)(F)F)c(OC)c3)C(=O)N3C[C@H](OC4CCC4)C[C@H]3C(=O)NC3(CC(C)(C)C3)C(=O)N(C)[C@@H](C3CCCC3)C(=O)N(C)[C@H](C(=O)N(C)C)CC(=O)N2C)N2CC/C=C\C[C@@H](C2=O)N(C)C(=O)CN(C)C1=O [PP3073] |  |  | A (a compound having 10 or more and less than 20 is denoted as A) | A (a compound having 10 or more and less than 20 is denoted as A) | A (a compound having 10 or more and less than 20 is denoted as A) | A (a compound having 10 or more and less than 20 is denoted as A) |
|  |  | 0.025 | 2.4 | CC[C@H](C)[C@@H]1NC(=O)[C@@H]2CCCCCc3ccc(cc3)C[C@@H](C(=O)N(C)CC(=O)N[C@@H](CCc3ccc(C(F)(F)F)c(OC)c3)C(=O)N3CC4(CC4)C[C@H]3C(=O)NC3(CC(C)(C)C3)C(=O)N(C)[C@@H](C3CCCC3)C(=O)N(C)[C@H](C(=O)N(C)C)CC(=O)N2C)N2CC/C=C\C[C@@H](C2=O)N(C)C(=O)CN(C)C1=O [PP3074] |  |  | A (a compound having 10 or more and less than 20 is denoted as A) | A (a compound having 10 or more and less than 20 is denoted as A) | A (a compound having 10 or more and less than 20 is denoted as A) | A (a compound having 10 or more and less than 20 is denoted as A) |
|  |  | 0.076 | 1.1 | CCO[C@@H]1C[C@H]2C(=O)NC3(CC(C)(C)C3)C(=O)N(C)[C@@H](C3CCCC3)C(=O)N(C)[C@H](C(=O)N(C)C)CC(=O)N(C)[C@H]3CCCCCc4ccc(cc4)C[C@@H](C(=O)N(C)CC(=O)N[C@@H](CCc4ccc(C(F)(F)F)c(OC)c4)C(=O)N2C1)N1CC/C=C\C[C@@H](C1=O)N(C)C(=O)CN(C1CC1)C(=O)[C@H]([C@@H](C)CC)NC3=O [PP3075] |  |  | A (a compound having 10 or more and less than 20 is denoted as A) | A (a compound having 10 or more and less than 20 is denoted as A) | A (a compound having 10 or more and less than 20 is denoted as A) | A (a compound having 10 or more and less than 20 is denoted as A) |
|  |  | 0.04 | 0.8 | CCCO[C@@H]1C[C@H]2C(=O)NC3(CC(C)(C)C3)C(=O)N(C)[C@@H](C3CCCC3)C(=O)N(C)[C@H](C(=O)N(C)C)CC(=O)N(C)[C@H]3CCCCc4ccc(cc4)C[C@@H](C(=O)N(C)CC(=O)N[C@@H](CCc4ccc(C(F)(F)F)c(OC)c4)C(=O)N2C1)N1CC/C=C\C[C@@H](C1=O)N(C)C(=O)CN(C)C(=O)[C@H]([C@@H](C)CC)NC3=O [PP3077] |  |  | A (a compound having 10 or more and less than 20 is denoted as A) | B (a compound having 3 or more and less than 10 is denoted as B) | A (a compound having 10 or more and less than 20 is denoted as A) | B (a compound having 3 or more and less than 10 is denoted as B) |
|  |  | 0.048 | 2.3 | CC[C@H](C)[C@@H]1NC(=O)[C@@H]2CCCCc3ccc(cc3)C[C@@H](C(=O)N(C)CC(=O)N[C@@H](CCc3ccc(C(F)(F)F)c(OC)c3)C(=O)N3C[C@H](OC(C)C)C[C@H]3C(=O)NC3(CC(C)(C)C3)C(=O)N(C)[C@@H](C3CCCC3)C(=O)N(C)[C@H](C(=O)N(C)CC)CC(=O)N2C)N2CC/C=C\C[C@@H](C2=O)N(C)C(=O)CN(C)C1=O [PP3078] |  |  | A (a compound having 10 or more and less than 20 is denoted as A) | B (a compound having 3 or more and less than 10 is denoted as B) | A (a compound having 10 or more and less than 20 is denoted as A) | B (a compound having 3 or more and less than 10 is denoted as B) |

The remaining lines, values behind:

| Structure (SMILES) | Kd ([3]; SPR Single Cycle Kinetics, 1:1 binding model) [nM] | IC50 [4] [nM] | Kd ([3]; SPR, Single Cycle Kinetics) [nM] | IC50 [4, 5] [nM] | NRAS/KRAS (ratio of KD value with respect to GDP-bound NRAS wild-type protein to KD value with respect to KRAS) ([1]; SPR KD ratio NRAS/KRAS, class symbols) | HRAS/KRAS (ratio of KD value with respect to GDP-bound HRAS wild-type protein to KD value with respect to KRAS) ([2]; SPR KD ratio HRAS/KRAS, class symbols) | NRAS/KRAS (ratio of KD value for NRAS to KD value for KRAS) [1] | HRAS/KRAS (ratio of KD value for HRAS to KD value for KRAS) [2] | ratio of the KD value with respect to GDP-bound NRAS wild-type protein to the KD value with respect to KRAS [1] | ratio of the KD value with respect to GDP-bound HRAS wild-type protein to the KD value with respect to KRAS [2] |
| --- | --- | --- | --- | --- | --- | --- | --- | --- | --- | --- |
| CCO[C@@H]1C[C@H]2C(=O)NC3(CC(C)(C)C3)C(=O)N(C)[C@@H](C(CC)CC)C(=O)N(C)[C@H](C(=O)N(C)C)CC(=O)N(C)[C@H]3CCC/C=C/c4ccc(cc4)C[C@@H](C(=O)N(C)CC(=O)N[C@@H](CCc4cc(F)c(C(F)(F)F)c(F)c4)C(=O)N2C1)N1CC/C=C\C[C@@H](C1=O)N(C)C(=O)CN(C1CC1)C(=O)[C@H]([C@@H](C)CC)NC3=O [PP2955] | 0.14 | 7.7 |  |  | A (a compound having 10 or more and less than 20 is denoted as A) | A (a compound having 10 or more and less than 20 is denoted as A) |  |  |  |  |
| CC[C@H](C)[C@@H]1NC(=O)[C@@H]2CCC/C=C/c3ccc(cc3)C[C@@H](C(=O)N(C)CC(=O)N[C@@H](CCc3ccc(Cl)c(Cl)c3)C(=O)N3C[C@H](OC4CCC4)C[C@H]3C(=O)NC3(CC(C)(C)C3)C(=O)N(C)[C@@H](C3CCCC3)C(=O)N(C)[C@H](C(=O)N(C)CC)CC(=O)N2C)N2CC/C=C\C[C@@H](C2=O)N(C)C(=O)CN(C)C1=O [PP3058] |  | 21.2 | 0.21 |  |  |  | A (a compound having 10 or more and less than 20 is denoted as A) | A (a compound having 10 or more and less than 20 is denoted as A) |  |  |
| CCO[C@@H]1C[C@H]2C(=O)N(C)C3(CC(C)(C)C3)C(=O)N(C)[C@@H](C3CCCC3)C(=O)N(C)[C@H](C(=O)N(C)C)CC(=O)N(C)[C@H]3CCC/C=C/c4ccc(cc4)C[C@@H](C(=O)N(C)CC(=O)N[C@@H](CCc4ccc(Cl)c(Cl)c4)C(=O)N2C1)N1CC/C=C\C[C@@H](C1=O)N(C)C(=O)CN(C)C(=O)[C@H]([C@@H](C)CC)NC3=O [PP3059] |  | 2.1 | 0.055 |  |  |  | A (a compound having 10 or more and less than 20 is denoted as A) | A (a compound having 10 or more and less than 20 is denoted as A) |  |  |
| CCO[C@@H]1C[C@H]2C(=O)N(C)C3(CC(C)(C)C3)C(=O)N(C)[C@@H](C3CCCC3)C(=O)N(C)[C@H](C(=O)N(C)C)CC(=O)N(C)[C@H]3CCC/C=C/c4ccc(cc4)C[C@@H](C(=O)N(C)CC(=O)N[C@@H](CCc4ccc(Cl)c(Cl)c4)C(=O)N2C1)N1CC/C=C\C[C@@H](C1=O)N(C)C(=O)CN(C1CC1)C(=O)[C@H]([C@@H](C)CC)NC3=O [PP3061] |  | 4.4 | 0.13 |  |  |  | A (a compound having 10 or more and less than 20 is denoted as A) | A (a compound having 10 or more and less than 20 is denoted as A) |  |  |
| CCO[C@@H]1C[C@H]2C(=O)NC3(CC(C)(C)C3)C(=O)N(C)[C@@H](C3CCCC3)C(=O)N(C)[C@H](C(=O)N(C)C)CC(=O)N(C)[C@H]3CCCCCc4ccc(cc4)C[C@@H](C(=O)N(C)CC(=O)N[C@@H](CCc4ccc(Cl)c(Cl)c4)C(=O)N2C1)N1CC/C=C\C[C@@H](C1=O)N(C)C(=O)CN(C)C(=O)[C@H]([C@@H](C)CC)NC3=O [PP3076] |  |  | 0.059 | 4.1 |  |  | AA (a compound having 20 or more is denoted as AA) | A (a compound having 10 or more and less than 20 is denoted as A) | AA (a compound having 20 or more is denoted as AA) | A (a compound having 10 or more and less than 20 is denoted as A) |
